Measured values: US20110251220A1, “Pharmaceutical compositions comprising gamma secretase modulators” (priority 2008, published 2011)

Experiments:
Assay type in all cases: cell-based, human
Hes-1 = test: Quantitative RT-PCR of Notch1 target gene Hes-1 in OPM-2 cells; details: OPM-2 cells treated with GSI15
Method: Quantitative real-time reverse transcription-PCR (RT-PCR) analysis was performed using the following primer/probe sets: human Hes-1 (forward—[…], reverse—[…], probe—FAM-[…]-TAMRA) human TRAP5 (forward—[…], reverse—[…], probe FAM-[…]-TAMRA), human beta2-microglobulin (forward—ccc cca ctg aaa aag atg ag, reverse—atc caa tcc aaa tgc ggc, probe—FAM-CCTGCCGTGTGAACCATGTGACTTT-TAMRA) served as normalizer. Total RNA was extracted from MM cells, human osteoclasts or human osteoblasts using RNeasy Mini Kit (Qiagen, Hilden, Germany) following the manufacturer's instructions. For the RT-PCR reaction SuperScript™ III Platinum® One-Step Quantitative RT-PCR System (Invitrogen, Karlsruhe, Germany) was used. 50 ng total RNA were used per reaction, each RNA sample was analyzed in three replicates. PCR conditions (40 cycles) were the following: reverse transcription at 50° C. for 30 minutes, initial denaturation at 95° C. for 10 minutes, followed by 40 cycles of 45 seconds denaturation at 95° C. and 60 seconds annealing/extension at 62° C. Amplification of the house-keeping gene beta2-microglobulin was used to normalize the expression data. Normalized mRNA expression data were then calculated as values relative to the respective untreated sample.

OPM-2 cells = test: PARP cleavage by Western blotting, OPM-2
Method: In osteoclast coculture experiments, OPM-2 cells (1×10^6 cells) were added to osteoclasts in 60 mm dishes (4×10^6 cells per dish) in 3 ml MEM medium supplemented with 10% FCS, 100 U/ml penicillin, 100 μg/ml streptomycin. GSI15 (30 μM, 60 μM) or DMSO (equivalent to 60 μM) as solvent control were added to each well (daily treatment). After 48 h, 0.5 ml OPM-2 cell suspension were harvested per well and subjected to AnnexinV-FITC/PI staining. Remaining OPM-2 cells were harvested and lysed for either RNA or protein preparation. The monolayer of osteoclasts was washed twice with ice-cold PBS and then lysed for either RNA or protein preparation directly on the plate.
In osteoblast coculture experiments, OPM-2 cells (7.5×10^5) were added to osteoblasts (2×10^5 cells) in 6-well plates in 2 ml DMEM/HAM's F12 medium supplemented with 10% FCS, 100 U/ml penicillin, 100 μg/ml streptomycin. GSI15 (40 μM, 60 μM, 80 μM) or DMSO (equivalent to 80 μM) as solvent control was added to each well (daily treatment). After 72 h of coculture and GSI15 treatment OPM-2 cells in suspension were aspirated and subjected to protein lysis. The remaining monolayer of osteoblasts was washed twice with ice-cold PBS and lysed directly on the plate with protein lysis buffer.
Whole cell extracts were prepared and quantified as described in Jundt F, Anagnostopoulos I, Forster R, Mathas S, Stein H, Dorken B. Activated Notch1 signaling promotes tumor cell proliferation and survival in Hodgkin and anaplastic large cell lymphoma. Blood. 2002; 99:3398-3403. Proteins (30 μg) were resolved by sodium dodecyl sulfate-polyacrylamide gel electrophoresis (SDS-PAGE) and transferred to nitrocellulose membranes. Protein loading was normalized by Ponceau red staining. […]
Secondary antibodies were goat anti-mouse (Promega, Mannheim, Germany), goat anti-rat (Dianova, Hamburg, Germany), and goat anti-rabbit (Santa Cruz Biotechnology) horseradish peroxidase (HRP)-conjugated antibodies. Detection was done using Pico chemi-luminescence reagent (Perbio Science, Bonn, Germany).

U266 cells [1] = test: Apoptosis by AnnexinV-FITC/PI staining, U266
Method: (§1) The compound according to example 1, hereinafter referred to as GSI15, (compound RH02015SC, Maybridge, Acros Organics, Geel, Belgium) was freshly dissolved as 26 mM stock solution in Dimethylsulfoxide (DMSO). Multiple myeloma therapeutics used were melphalan (marketed as Alkeran®, GlaxoSmithKline, Munich, Germany) and bortezomib (marketed as Velcade®, Janssen-Cilag, Neuss, Germany). Melphalan was freshly dissolved at 10 mg/ml in 0.9% NaCl-solution. Bortezomib was freshly dissolved at 100 ng/ml in 0.9% NaCl solution. Gamma Secretase Inhibitor (GSI) treatment for apoptosis assessment by AnnexinV/PI staining, cell cycle analysis and coculture experiments was performed in 6-well plates. GSI15 stock solution was added directly to the cell suspension. GSI treatment for assaying proliferation was performed in 96-well plates. […]
(§2) For cell cycle analysis 2×10^5 cells were spun down, medium was aspirated and cells washed with PBS. […] After 10 minutes incubation in the dark at room temperature, cells were analyzed by flow cytometry. The amount of apoptotic cells was determined by AnnexinV/propidium iodide staining using Human AnnexinV-FITC Kit (Bender Medsystems, Vienna, Austria), according to manufacturer's protocol. […] Cells were then spun down again, resuspended in binding buffer containing PI and analyzed by flow cytometry.

U266 cells [2] = test: Cell cycle analysis (propidium iodide), U266
Method: as §1, §2

Compound: CC(C)c1ccc(S(=O)(=O)Nc2cccnc2Oc2ccc(Cl)cc2)cc1 [Example 1, N-(2-(4-chlorophenoxy)pyridin-3-yl)-4-isopropylbenzenesulfonamide]
- Hes-1 expression (Notch1 target gene) (Hes-1): dose-dependently downregulated
- PARP cleavage (OPM-2 cells; MM cells in coculture with OBL or MSC): apoptosis induction
- PARP cleavage product (apoptosis marker) (OPM-2 cells; OPM-2, 30 μM GSI15): Apoptosis induction could be shown
- PARP cleavage (OPM-2 cells; OPM-2 in mono- and coculture with OCL): Strong induction of PARP cleavage
- AnnexinV-FITC/PI staining (U266 cells [1]): remained unaffected
- sub-G1 fraction / cell cycle (U266 cells [2]): no change was detected
